Where two headings read alike, the source gives them in different places.
Experiments:
KK leukemic cell line = test: MTT assay; assay type: cell-based, human; details: 48 h, read-out: MTT50
Method: (§1) All cell lines were assayed as asynchronously growing cells. Leukemic cell lines, OCI-AML-2, OCI-AML-3 (referred to hereafter as AML-2 and AML-3, respectively), NB-4, KK, B1, G2, and W1 were cultured in alpha-minimal essential medium (α-MEM) (Princess Margaret Hospital Media Services) supplemented with 10% fetal bovine serum (FBS) (Sigma, St. Louis, Mo.). Non-transformed, diploid fibroblast lines WI38 and IMR90, were cultured in α-MEM and MEM F-15, respectively supplemented with 10% FBS. Media for IMR90 cells was also supplemented with 1.5 g/L bicarbonate and 1 mM pyruvate. Breast tumour cell lines, MDA-231, SK-BR-3, MCF-7, ZR-751, and melanoma tumour cell lines, WM9, WM983, WM793, 1232, were grown in α-MEM supplemented with 10% fetal bovine serum. Prostate tumour cell lines, DU145 and PC-3, were grown in RPMI 1640 media supplemented with 10% FBS. All cell lines were cultured in the presence of penicillin/streptomycin. Mononucleated cells were isolated from normal bone marrow using Ficoll hypaque and then T-cell depleted. T-cell depletion was performed by incubating the mononucleated bone marrow cells in α-MEM at a concentration of 2×10^7 cells/mL with 10% absor FBS and 10% (v/v) sheep red blood cells for 4 to 16 h. Absor FBS was prepared beforehand by heating FBS at 56° C. for 1 h, incubating with sheep red blood cells at 0.5% (v/v) for 1 h and then filtering the FBS with a […]. The T-cell depleted, mononucleated cells were recovered using Ficoll hypaque and were maintained in α-MEM supplemented with 20% FBS and 10% 5637 ? nditioned media. 5637 conditioned media ? s previously harvested from confluent 5637 cells after a 3 day incubation. Normal bone marrow from bone marrow transplant donor was collected following informed consent according to institutional guidelines.
(§2) Approximately 20 mg of each compound was dissolved in 5 mL of ACS grade acetone (Sigma) using a 5 mL volumetric flask. Stock solutions of the compounds were stored in the dark at −20° C. Compounds were diluted prior to each experiment.
(§3) Adherent cells were seeded at 67×10^3 cells/mL in a 96 well plate (Falcon, Mississauga, Ontario) the day prior to exposure to compound. Suspension cells were seeded at 27×10^4 cells/mL in a 96 well plate the day of exposure to compound. Mononucleated, T-cell depleted normal bone marrow cells were seeded at 67×10^4 cells/mL in a 96 well plate the day of exposure to compound. Compounds and solvent control were added to cells and assayed in triplicate or sextuplet. Following 48 h of incubation at 37° C. with 5% CO2, 40 μL of a 5 mg/mL solution of 3-[4,5-dimethylthiazol-2-yl]-2,5-diphenyltetrazolium bromide (MTT) substrate (Sigma) in Dulbecco's phosphate-buffered saline (D-PBS) was added. After 4 h of incubation at 37° C. with 5% CO2, the resulting violet formazan precipitate was solubilized by the addition of 80 μL of a 0.01 M HCI, 10% sodium dodecyl sulfate (SDS; Sigma) solution overnight at 37° C. with 5% CO2. The plates were then analyzed using the BioRad Benchmark Microplate Reader (BioRad Laboratories, Hercules, Calif.) at 570 nm to determine the optical density of the samples. MTT data was analyzed using Prism 3.0 (GraphPad Software, Inc., San Diego, Calif.) by the Chou-Talalay method. MTT graphs shown are a representative experiment.
(§4) Adherent cells were seeded at 67×10^3 cells/mL in a 96 well plate (Falcon, Mississauga, Ontario) the day prior to exposure to compound. Suspension cells were seeded at 27×10^4 cells/mL in a 96 well plate the day of exposure to compound. Mononucleated, T-cell depleted normal bone marrow cells were seeded at 67×10^4 cells/mL in a 96 well plate the day of exposure to compound. Compounds and solvent control were added to cells and assayed in triplicate or sextuplet. […]

AML-3 leukemic cell line [1] = test: MTT assay; assay type: cell-based, human
Method: as §1, §2, §3, §4

[2] = system: WI38 non-transformed diploid fibroblasts; test: MTT assay; assay type: cell-based, human; details: for IC50: read-out: MTT50; for Viability of non-transformed human WI38 fibroblasts following exposure: in words
Method: as §1, §2, §3, §4

AML-3 leukemic cell line [3] = test: Fixed propidium iodide staining, flow cytometry; assay type: cell-based, human; details: 48 h
Method: (§5) Adherent cell lines were plated at 35×10^4 cells/60 cm^2 dish the day before exposure to compound. Suspension cells were seeded at 25×10^4 cells/mL in a 6 well dish (Falcon) the day of exposure to compound. Mononucleated, T-cell depleted normal bone marrow cells were seeded at 50×10^4 cells/mL in a 6 well dish the day of exposure to compound. Cells were exposed to solvent control or approximate MTT50 and MTT30 concentrations of the compound. After 48 h of exposure to the compound, cells were harvested, fixed in 80% ethanol for 1 h on ice and labeled with 50 μg/mL propidium iodide (Sigma). Approximately 10^6 cells were analyzed using a XL-MCL flow cytometer (Coulter Corporation, Miami, Fla.) and a FACScalibar cytometer (Becton Dickinson, San Jose, Calif.). Profiles shown are a representative.
as §5, with “cm2” for “cm^2”, “concentrations.” for “concentrations of the compound.”, “representative. Cell viability counts and Pi staining were performed as previously described (Dimitroulakos, J, Nohynek, D, Backway, K L, Hedley, D W, Yeger, H, Freedman, M H, Minden, M D and Penn, L Z: Increased sensitivity of acute myeloid leukemias to lovastatin-induced apoptosis: A potential therapeutic approach. Blood 93: 1308-18, 1999).” for “representative.”

[4] = system: Normal bone marrow (mononucleated, T-cell depleted); test: MTT assay; assay type: cell-based; details: 48 h, read-out: MTT50
Method: as §1, §2, §3, §4

[5] = Homo sapiens, AML3, 48 h, AML-3, read-out: MTT50
[6] = Homo sapiens, WI-38, 48 h, WI38 (normal), 48 h

| SMILES | IC50 (KK leukemic cell line; Homo sapiens, KK) | IC50 (AML-3 leukemic cell line [1]; [5]) | IC50 [2, 6] | Viability of non-transformed human WI38 fibroblasts following exposure [2] | IC50 ([4]; T-cell, Normal bone marrow) | IC50 (KK leukemic cell line; KK) | IC50 (AML-3 leukemic cell line [1]; AML-3, 48 h, read-out: MTT50) | IC50 ([2]; WI38 (normal), 48 h) | IC50 ([4]; Normal bone marrow) | further results |
| --- | --- | --- | --- | --- | --- | --- | --- | --- | --- | --- |
| CSCSSC [Compound N, 2,3,5-trithiahexane] |  |  |  |  |  |  |  |  |  | IC50 (KK leukemic cell line; Homo sapiens): 65.2 µM; IC50 (AML-3 leukemic cell line [1]; Homo sapiens, AML3, 48 h, read-out: MTT50, AML-3): 51.1 µM; IC50 (AML-3 leukemic cell line [1]; read-out: MTT50, AML-3, 48 h): 73.4 µM; IC50 ([2]; Homo sapiens, WI-38, 48 h): > 100 µM; % G2 increase (Fixed PI) (AML-3 leukemic cell line [3]; dose 50 uM): +17%; % pre-G1 (Fixed PI) (AML-3 leukemic cell line [3]; dose 50 uM): 17%; % G2 increase (Fixed PI) (AML-3 leukemic cell line [3]; dose 150 uM): +14%; % pre-G1 (Fixed PI) (AML-3 leukemic cell line [3]; dose 150 uM): 35%; IC50 ([4]; T-cell): > 100 µM |
| c1ccc(SSc2ccccc2)cc1 [D, diphenyl disulphide] | 12.8 µM | 10.1 µM | 45.3 µM | decreased | 19.1 µM |  |  |  |  | % pre-G1 (Fixed PI) (AML-3 leukemic cell line [3]; dose 91.6 uM (20 ug/mL)): 24.1% |
| COC(=O)CSSC [H, methyl 3,4-dithiopentanoate] |  |  |  | not affected |  | 110 µM | 93.4 µM | > 164 µM | 366 µM | % pre-G1 (Fixed PI) (AML-3 leukemic cell line [3]; dose 65.7 uM (10 ug/mL)): 3.6% |
| CCC(=O)OCSSc1ccccc1 [Compound Q, 1-phenyl-1,2-dithiapropyl propionate] | 23.7 µM | 22.5 µM | > 100 µM |  | > 100 µM |  |  |  |  | % G2 increase (Fixed PI) (AML-3 leukemic cell line [3]; dose 20 uM): −5%; % pre-G1 (Fixed PI) (AML-3 leukemic cell line [3]; dose 20 uM): 10%; % G2 increase (Fixed PI) (AML-3 leukemic cell line [3]; dose 40 uM): −9%; % pre-G1 (Fixed PI) (AML-3 leukemic cell line [3]; dose 40 uM): 42% |
| CSSCC(=O)c1ccccc1 [Compound P, phenacyl methyl disulphide] | 65.2 µM | 51.1 µM | > 100 µM |  | > 100 µM |  |  |  |  | % pre-G1 (Fixed PI) (AML-3 leukemic cell line [3]; dose 50 uM): 7%; % pre-G1 (Fixed PI) (AML-3 leukemic cell line [3]; dose 150 uM): 66% |
| CSCSCS(C)(=O)=O [B] |  |  |  | not affected |  | > 134 µM | > 134 µM | > 134 µM | > 134 µM | % G2/M (Fixed PI) (AML-3 leukemic cell line [3]; dose 107 uM (20 ug/mL)): 13.4%; % pre-G1 (Fixed PI) (AML-3 leukemic cell line [3]; dose 107 uM (20 ug/mL)): 0.3% |
| CSSc1ccc([N+](=O)[O-])cc1 [M, methyl p-nitrophenyl disulphide] | 10.5 µM | 15 µM | 13.8 µM |  | 22.6 µM |  | 8.53 µM | 17.4 µM |  | % pre-G1 (Fixed PI) (AML-3 leukemic cell line [3]; dose 20 uM): 34%; % pre-G1 (Fixed PI) (AML-3 leukemic cell line [3]; dose 40 uM): 56% |
| CSSCCS(C)(=O)=O [F, 2,3,6-trithiaheptane 6,6,-dioxide] |  |  |  | not affected |  | 93.4 µM | 44 µM | > 100 µM | 116 µM | % G2/M (Fixed PI) (AML-3 leukemic cell line [3]; dose 45.8 uM (10 ug/mL)): 34.1%; % pre-G1 (Fixed PI) (AML-3 leukemic cell line [3]; dose 45.8 uM (10 ug/mL)): 5.1% |
| CSSCOC(C)=O [I, 2,3-dithiabutyl acetate] | 31.5 µM | 31.5 µM | 76.9 µM | decreased | 32.8 µM |  |  |  |  | % pre-G1 (Fixed PI) (AML-3 leukemic cell line [3]; dose 232.8 uM (5 ug/mL)): 23.6% |
| CS(=O)(=O)CSCS(C)(=O)=O [G, 2,4,6-trithiaheptane 2,2,6,6-tetraoxide] | 114 µM | 114 µM | 114 µM | not affected | 114 µM |  |  |  |  | % G2/M (Fixed PI) (AML-3 leukemic cell line [3]; dose 45.8 uM (10 ug/mL)): 13.5%; % pre-G1 (Fixed PI) (AML-3 leukemic cell line [3]; dose 45.8 uM (10 ug/mL)): 0.3% |
| CSSCS(=O)(=O)c1ccc(C)cc1 [Compound C, α-p-toluenesulfonyl dimethyl disulphide] |  |  |  | decreased |  | 31.4 µM | 16.9 µM | 89 µM | 20.9 µM | % G2/M (Fixed PI) (AML-3 leukemic cell line [3]; dose 20.2 uM (10 ug/mL)): 11.1%; % pre-G1 (Fixed PI) (AML-3 leukemic cell line [3]; dose 20.2 uM (10 ug/mL)): 10.7% |
| CS(=O)(=O)CSSc1ccccc1 [E, 5-phenyl-2,4,5-trithiapentane 2,2-dioxide] | 17.5 µM | 15.4 µM | 45.2 µM | decreased | 21.9 µM |  |  |  |  | % pre-G1 (Fixed PI) (AML-3 leukemic cell line [3]; dose 85.3 uM (20 ug/mL)): 24.5% |
| CS(C)(=O)=O [Compound A, dimethyl sulfone] |  |  |  | not affected |  | > 265 µM | > 265 µM | > 265 µM | > 265 µM | % pre-G1 (Fixed PI) (AML-3 leukemic cell line [3]; dose 212 uM (20 ug/mL)): 0.1% |

Source: patent publication US20030220524A1, “Sulfur containing compounds” (priority 2000, published 2003)
